# Article PMC4567403 (Bioorganic & medicinal chemistry letters, 2015)
# What was measured:
# [1] = Microsomal intrinsic clearance, mouse; assay type: in vitro ADME; conditions: in words
# P450 1A2 = biological target: T1, P450 1A2 (Homo sapiens, UniProt P05177); assay: P450 inhibition 1A2; assay type: in vitro ADME; conditions: 1A2, at 30 μM
# T1 sequence (P05177 1-516): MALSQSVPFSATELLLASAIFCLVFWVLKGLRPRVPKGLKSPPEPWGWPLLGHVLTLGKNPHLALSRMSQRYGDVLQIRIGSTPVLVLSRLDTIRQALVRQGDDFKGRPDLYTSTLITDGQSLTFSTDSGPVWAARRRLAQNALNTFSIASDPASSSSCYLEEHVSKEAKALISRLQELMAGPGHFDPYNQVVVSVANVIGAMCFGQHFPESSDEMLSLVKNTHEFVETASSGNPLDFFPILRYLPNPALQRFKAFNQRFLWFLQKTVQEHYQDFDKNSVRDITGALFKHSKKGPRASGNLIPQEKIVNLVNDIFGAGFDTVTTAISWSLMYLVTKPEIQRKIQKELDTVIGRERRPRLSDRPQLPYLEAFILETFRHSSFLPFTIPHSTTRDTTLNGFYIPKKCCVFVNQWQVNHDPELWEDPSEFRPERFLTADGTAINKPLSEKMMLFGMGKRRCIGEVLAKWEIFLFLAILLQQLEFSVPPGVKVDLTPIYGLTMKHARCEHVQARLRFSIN
# P450 2D6 = P450 2D6 (Homo sapiens, UniProt P10635); assay: P450 inhibition 2D6; assay type: in vitro ADME; conditions: 2D6, at 30 μM
# Chain of P450 2D6 (P10635 whole entry): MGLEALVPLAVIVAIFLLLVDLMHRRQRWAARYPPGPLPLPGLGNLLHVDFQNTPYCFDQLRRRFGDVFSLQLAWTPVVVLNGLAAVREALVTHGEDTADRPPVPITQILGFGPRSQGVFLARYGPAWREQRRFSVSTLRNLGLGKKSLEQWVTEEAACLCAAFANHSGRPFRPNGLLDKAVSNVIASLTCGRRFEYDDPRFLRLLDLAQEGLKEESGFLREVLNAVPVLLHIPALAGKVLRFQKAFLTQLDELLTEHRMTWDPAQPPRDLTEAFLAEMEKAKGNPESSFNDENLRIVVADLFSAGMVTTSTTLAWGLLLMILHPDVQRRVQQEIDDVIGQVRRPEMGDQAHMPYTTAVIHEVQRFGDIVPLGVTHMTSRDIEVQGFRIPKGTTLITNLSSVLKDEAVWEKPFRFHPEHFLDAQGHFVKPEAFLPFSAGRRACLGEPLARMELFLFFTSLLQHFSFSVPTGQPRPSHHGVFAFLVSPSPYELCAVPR
# P450 2C9 = P450 2C9 (Homo sapiens, UniProt P11712); assay: P450 inhibition 2C9; assay type: in vitro ADME; conditions: 2C9, at 30 μM
# Chain of P450 2C9 (P11712 whole entry): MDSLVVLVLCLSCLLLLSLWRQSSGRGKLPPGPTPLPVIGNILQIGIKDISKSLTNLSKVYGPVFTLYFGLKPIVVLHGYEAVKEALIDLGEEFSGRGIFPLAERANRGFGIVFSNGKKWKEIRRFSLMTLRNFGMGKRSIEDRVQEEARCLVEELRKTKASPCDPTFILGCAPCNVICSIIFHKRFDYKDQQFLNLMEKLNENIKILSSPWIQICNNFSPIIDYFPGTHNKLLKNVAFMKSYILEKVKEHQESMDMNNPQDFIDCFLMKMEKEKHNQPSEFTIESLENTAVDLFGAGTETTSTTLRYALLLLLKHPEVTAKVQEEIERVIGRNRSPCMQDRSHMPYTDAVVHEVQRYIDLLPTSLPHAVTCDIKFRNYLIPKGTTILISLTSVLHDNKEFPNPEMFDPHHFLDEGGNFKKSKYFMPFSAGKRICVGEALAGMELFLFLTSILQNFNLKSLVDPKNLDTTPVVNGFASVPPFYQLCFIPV
# Pharmacokinetics in rat = assay type: in vivo, male Sprauge- Dawley rats
# SW620 cell lines = conditions: cited from earlier work
# [2] = Microsomal intrinsic clearance, human; assay type: in vitro ADME; conditions: human microsomal studies, in words
# P450 3A4 = P450 3A4 (Homo sapiens, UniProt P08684); assay: P450 inhibition 3A4; assay type: in vitro ADME; conditions: 3A4, at 30 μM
# Chain of P450 3A4 (P08684 whole entry): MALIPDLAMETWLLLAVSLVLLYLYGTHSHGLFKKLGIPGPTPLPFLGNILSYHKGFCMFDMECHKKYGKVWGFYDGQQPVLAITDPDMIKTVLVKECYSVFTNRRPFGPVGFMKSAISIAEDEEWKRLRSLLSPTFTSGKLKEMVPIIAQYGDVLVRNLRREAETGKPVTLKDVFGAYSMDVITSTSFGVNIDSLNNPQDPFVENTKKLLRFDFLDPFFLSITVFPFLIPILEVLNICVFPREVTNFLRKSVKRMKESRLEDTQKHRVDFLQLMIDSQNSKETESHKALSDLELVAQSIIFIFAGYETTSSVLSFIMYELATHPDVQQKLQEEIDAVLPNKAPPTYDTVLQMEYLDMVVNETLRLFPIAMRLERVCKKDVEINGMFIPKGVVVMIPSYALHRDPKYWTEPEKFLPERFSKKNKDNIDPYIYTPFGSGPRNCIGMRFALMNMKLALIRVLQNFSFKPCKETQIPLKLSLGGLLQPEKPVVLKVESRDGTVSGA
# [3] = system: e-cadherin expression in SW620 cells; assay: In-Cell-Western; assay type: cell-based; conditions: 10 μM compound, average of two assessments
smiles,measurement,setting,value
O=C(NCCCCNC(=O)c1cccnc1O)c1cc(-c2ccccc2)on1 [11r],mouse clearance,[1],well in excess of hepatic blood flow
same,inhibition of P450 isozyme,P450 1A2,No inhibition
same,inhibition of P450 isozyme,P450 2D6,No inhibition
same,inhibition of P450 isozyme,P450 2C9,No inhibition
same,exposure,Pharmacokinetics in rat; IV and IP dosing,suitable
same,half life,"Pharmacokinetics in rat; IV dose in rat, 1 mg/kg",long
same,EMT phenotype,SW620 cell lines,capable of reversing the EMT phenotype
same,invasive potential,SW620 cell lines,reducing the invasive potential
same,intrinsic clearance,[2],neglible
same,inhibition of P450 isozyme,P450 3A4,No inhibition
O=C(NCCCn1ccnc1)c1noc2ccccc12 [compound 3],Fold change of e-cadherin expression,[3],failed to demonstrate significant restoration
O=C(NCCCN1CCOCC1)c1n[nH]c2ccccc12 [compound 4],Fold change of e-cadherin expression,[3],failed to demonstrate significant restoration
Cn1nc(C(=O)NCCCCc2ccncc2)cc1-c1ccccc1 [compound 5],Fold change of e-cadherin expression,[3],failed to demonstrate significant restoration
Cc1c(C(=O)NCCCCc2ccncc2)nn(C)c1-c1ccccc1 [compound 6],Fold change of e-cadherin expression,[3],failed to demonstrate significant restoration
CC(CNC(=O)c1cc(-c2cccs2)on1)c1ccncc1 (stereo not drawn) [compound 7],Fold change of e-cadherin expression,[3],failed to demonstrate significant restoration
